Article PMC5218480 (PLoS ONE, 2017)

Tested on: MV-4-11 cells
Experiment: Gene expression microarray analysis (Affymetrix PrimeView) and GSEA
Format: cell-based, human
Design: RFU PODN (11730768_x_at) / Fold change /veh PODN (11730768_x_at) / RFU LINC00158 (11744669_a_at) / Fold change /veh LINC00158 (11744669_a_at) / RFU DUSP10 (11751237_a_at) / Fold change /veh DUSP10 (11751237_a_at) / RFU ID3 (11757404_x_at) / Fold change /veh ID3 (11757404_x_at) / RFU PLEKHG5 (11737974_s_at) / Fold change /veh PLEKHG5 (11737974_s_at) / RFU LRRC4B (11730491_at) / Fold change /veh LRRC4B (11730491_at) / RFU GIMAP4 (11747438_a_at) / Fold change /veh GIMAP4 (11747438_a_at) / RFU KRT8 (11758183_x_at) / Fold change /veh KRT8 (11758183_x_at) / RFU CNN1 (11734310_a_at) / Fold change /veh CNN1 (11734310_a_at) / RFU VPS37D (11726825_at) / Fold change /veh VPS37D (11726825_at) / RFU C10orf10 (11716522_x_at) / Fold change /veh C10orf10 (11716522_x_at) / RFU KIR2DL2 /// KIR2DL4 /// KIR2DL5A /// KIR2DL5B /// KIR2DS1 /// KIR2DS2 /// KIR2DS3 /// KIR2DS4 /// KIR3DL3 /// KIR3DL3 /// KIR3DS1 (11738374_at) / Fold change /veh KIR2DL2 /// KIR2DL4 /// KIR2DL5A /// KIR2DL5B /// KIR2DS1 /// KIR2DS2 /// KIR2DS3 /// KIR2DS4 /// KIR3DL3 /// KIR3DL3 /// KIR3DS1 (11738374_at) / RFU C1QL1 (11718748_at) / Fold change /veh C1QL1 (11718748_at) / RFU TMPRSS4 (11747572_a_at) / Fold change /veh TMPRSS4 (11747572_a_at) / RFU HAMP (11756126_x_at) / Fold change /veh HAMP (11756126_x_at) / RFU RNFT2 (11725882_a_at) / Fold change /veh RNFT2 (11725882_a_at) / RFU NR4A2 (11747474_a_at) / Fold change /veh NR4A2 (11747474_a_at) / RFU ABCC12 (11746883_a_at) / Fold change /veh ABCC12 (11746883_a_at) / RFU TMEM136 (11760407_x_at) / Fold change /veh TMEM136 (11760407_x_at) / RFU CLDN22 /// WWC2 (11732394_at) / Fold change /veh CLDN22 /// WWC2 (11732394_at) / RFU HLA-DPB1 (11760878_x_at) / Fold change /veh HLA-DPB1 (11760878_x_at) / RFU SPINT1 (11716480_a_at) / Fold change /veh SPINT1 (11716480_a_at) / RFU GAP43 (11754022_s_at) / Fold change /veh GAP43 (11754022_s_at) / RFU A4GNT (11735810_at) / Fold change /veh A4GNT (11735810_at) / RFU PRB3 (11715151_x_at) / Fold change /veh PRB3 (11715151_x_at) / RFU TUBB4B (11761932_at) / Fold change /veh TUBB4B (11761932_at) / RFU CAPN14 (11732068_a_at) / Fold change /veh CAPN14 (11732068_a_at) / RFU TMCC2 (11721928_a_at) / Fold change /veh TMCC2 (11721928_a_at) / RFU IRGQ (11745062_a_at) / Fold change /veh IRGQ (11745062_a_at) / RFU FAM174B (11720279_a_at) / Fold change /veh FAM174B (11720279_a_at) / RFU TMPRSS4 (11748680_a_at) / Fold change /veh TMPRSS4 (11748680_a_at) / RFU FAM212B (11763350_a_at) / Fold change /veh FAM212B (11763350_a_at) / RFU PLEKHG5 (11743358_a_at) / Fold change /veh PLEKHG5 (11743358_a_at) / RFU ZSCAN30 (11745921_a_at) / Fold change /veh ZSCAN30 (11745921_a_at) / RFU CMKLR1 (11741424_a_at) / Fold change /veh CMKLR1 (11741424_a_at) / RFU LOC101060620 /// MAPK8IP1 (11723275_at) / Fold change /veh LOC101060620 /// MAPK8IP1 (11723275_at) / RFU SPTSSB (11747773_x_at) / Fold change /veh SPTSSB (11747773_x_at) / RFU PRSS12 (11739890_at) / Fold change /veh PRSS12 (11739890_at) / RFU BIN1 (11741810_x_at) / Fold change /veh BIN1 (11741810_x_at) / RFU WNT11 (11732464_a_at) / Fold change /veh WNT11 (11732464_a_at) / RFU C10orf10 (11716521_a_at) / Fold change /veh C10orf10 (11716521_a_at) / RFU C5orf56 (11738089_at) / Fold change /veh C5orf56 (11738089_at) / RFU CYB561 (11721691_x_at) / Fold change /veh CYB561 (11721691_x_at) / RFU ANKRD19P (11752326_a_at) / Fold change /veh ANKRD19P (11752326_a_at) / RFU OR2T12 /// OR2T33 /// OR2T8 (11738714_s_at) / Fold change /veh OR2T12 /// OR2T33 /// OR2T8 (11738714_s_at) / RFU VCAN (11748164_a_at) / Fold change /veh VCAN (11748164_a_at) / RFU JSRP1 (11732532_at) / Fold change /veh JSRP1 (11732532_at) / RFU KRTAP10-11 (11738290_x_at) / Fold change /veh KRTAP10-11 (11738290_x_at) / RFU MYO3A (11730013_a_at) / Fold change /veh MYO3A (11730013_a_at) / RFU EBF3 (11725865_a_at) / Fold change /veh EBF3 (11725865_a_at) / RFU CAMK2N1 (11719241_x_at) / Fold change /veh CAMK2N1 (11719241_x_at) / RFU C5orf56 (11738088_a_at) / Fold change /veh C5orf56 (11738088_a_at) / RFU OLFML3 (11715873_a_at) / Fold change /veh OLFML3 (11715873_a_at) / RFU LOC100653217 /// NTM (11731650_a_at) / Fold change /veh LOC100653217 /// NTM (11731650_a_at) / RFU MAPK11 (11762145_a_at) / Fold change /veh MAPK11 (11762145_a_at) / RFU FIZ1 (11724087_x_at) / Fold change /veh FIZ1 (11724087_x_at) / RFU OASL (11726364_x_at) / Fold change /veh OASL (11726364_x_at) / RFU SOX15 (11748057_x_at) / Fold change /veh SOX15 (11748057_x_at) / RFU CD79A (11719716_a_at) / Fold change /veh CD79A (11719716_a_at) / RFU HIST1H1D (11736915_at) / Fold change /veh HIST1H1D (11736915_at) / RFU CASKIN2 (11723855_a_at) / Fold change /veh CASKIN2 (11723855_a_at) / RFU LOC730098 (11760151_x_at) / Fold change /veh LOC730098 (11760151_x_at) / RFU OR4N2 (11742367_at) / Fold change /veh OR4N2 (11742367_at) / RFU PRRT2 (11749266_a_at) / Fold change /veh PRRT2 (11749266_a_at) / RFU SNX32 (11753110_a_at) / Fold change /veh SNX32 (11753110_a_at) / RFU CDHR5 (11726645_a_at) / Fold change /veh CDHR5 (11726645_a_at) / RFU RCAN1 (11760418_a_at) / Fold change /veh RCAN1 (11760418_a_at) / RFU FAM167A (11723789_a_at) / Fold change /veh FAM167A (11723789_a_at) / RFU FAM26E (11764081_at) / Fold change /veh FAM26E (11764081_at) / RFU ISYNA1 (11749810_s_at) / Fold change /veh ISYNA1 (11749810_s_at) / RFU ACY1 (11761880_at) / Fold change /veh ACY1 (11761880_at) / RFU 11764098_at / Fold change /veh 11764098_at / RFU SAMD14 (11745864_x_at) / Fold change /veh SAMD14 (11745864_x_at) / RFU NPB (11741838_a_at) / Fold change /veh NPB (11741838_a_at) / RFU TMPRSS6 (11731388_a_at) / Fold change /veh TMPRSS6 (11731388_a_at) / RFU KRTAP10-2 (11738614_at) / Fold change /veh KRTAP10-2 (11738614_at) / RFU ARHGAP8 /// PRR5-ARHGAP8 (11727945_x_at) / Fold change /veh ARHGAP8 /// PRR5-ARHGAP8 (11727945_x_at) / RFU KRTAP5-7 /// NADSYN1 (11734609_at) / Fold change /veh KRTAP5-7 /// NADSYN1 (11734609_at) / RFU RASL12 (11751679_a_at) / Fold change /veh RASL12 (11751679_a_at) / RFU CDKN2B (11736163_a_at) / Fold change /veh CDKN2B (11736163_a_at) / RFU PRF1 (11729649_at) / Fold change /veh PRF1 (11729649_at) / RFU, ZNF638 /// ZNF638-IT1 / Fold change vs veh, ZNF638 /// ZNF638-IT1 / RFU, PANK3 / Fold change vs veh, PANK3 / RFU, SH3YL1 / Fold change vs veh, SH3YL1 / RFU, ZEB2 / Fold change vs veh, ZEB2 / RFU, NRIP1 / Fold change vs veh, NRIP1 / RFU, PTTG1IP / Fold change vs veh, PTTG1IP / RFU, CAPN2 / Fold change vs veh, CAPN2 / RFU, MED14 / Fold change vs veh, MED14 / RFU, SNORA58 / Fold change vs veh, SNORA58 / RFU, C1orf63 / Fold change vs veh, C1orf63 / RFU, LRRFIP1 / Fold change vs veh, LRRFIP1 / RFU, NDUFAF7 / Fold change vs veh, NDUFAF7 / RFU, SLC12A2 / Fold change vs veh, SLC12A2 / RFU, IBTK / Fold change vs veh, IBTK / RFU, ESF1 / Fold change vs veh, ESF1 / Fold change vs veh, TMEM50B / RFU, TAOK1 / Fold change vs veh, TAOK1 / RFU, ACBD3 / Fold change vs veh, ACBD3 / RFU, TMA16 / Fold change vs veh, TMA16 / RFU, RWDD3 / Fold change vs veh, RWDD3 / RFU, BCAT1 / Fold change vs veh, BCAT1 / RFU, EDEM3 / Fold change vs veh, EDEM3 / RFU, TMEM33 / Fold change vs veh, TMEM33 / RFU, WDR75 / Fold change vs veh, WDR75 / RFU, AHCTF1 / Fold change vs veh, AHCTF1 / RFU, TFRC / Fold change vs veh, TFRC / RFU, ZDHHC17 / Fold change vs veh, ZDHHC17 / RFU, NOM1 / Fold change vs veh, NOM1 / RFU, ARL8B / Fold change vs veh, ARL8B / RFU, ZBTB11 / Fold change vs veh, ZBTB11 / RFU, TAMM41 / Fold change vs veh, TAMM41 / RFU, KIAA1704 /// LOC100996395 / Fold change vs veh, KIAA1704 /// LOC100996395 / RFU, ING1 / Fold change vs veh, ING1 / RFU, TRMT61B / Fold change vs veh, TRMT61B / RFU, FUBP3 / Fold change vs veh, FUBP3 / RFU, TP53 / Fold change vs veh, TP53 / RFU, TNKS2 / Fold change vs veh, TNKS2 / RFU, ZFP14 / Fold change vs veh, ZFP14 / RFU, ACTR2 / Fold change vs veh, ACTR2 / RFU, PPP3R1 / Fold change vs veh, PPP3R1 / RFU, PIK3R1 / Fold change vs veh, PIK3R1 / RFU, HNRNPA1 / Fold change vs veh, HNRNPA1 / RFU, RNF170 / Fold change vs veh, RNF170 / RFU, ZNF28 / Fold change vs veh, ZNF28 / RFU, RNGTT / Fold change vs veh, RNGTT / RFU, OGT / Fold change vs veh, OGT / RFU, BRD1 / Fold change vs veh, BRD1 / RFU, MARS / Fold change vs veh, MARS / RFU, ZNF655 / Fold change vs veh, ZNF655 / RFU, FAHD1 / Fold change vs veh, FAHD1 / RFU, BDP1 / Fold change vs veh, BDP1 / RFU, LRRCC1 / Fold change vs veh, LRRCC1 / RFU, ARID1A / Fold change vs veh, ARID1A / RFU, ZNF146 / Fold change vs veh, ZNF146 / RFU, ZNF330 / Fold change vs veh, ZNF330 / RFU, GPN3 / Fold change vs veh, GPN3 / RFU, C9orf123 / Fold change vs veh, C9orf123 / RFU, N4BP2L2 / Fold change vs veh, N4BP2L2 / RFU, ARFIP1 / Fold change vs veh, ARFIP1 / RFU, FAM179B / Fold change vs veh, FAM179B / RFU, BCL10 / Fold change vs veh, BCL10 / RFU, UHRF1BP1L / Fold change vs veh, UHRF1BP1L / RFU, BET1 / Fold change vs veh, BET1 / RFU, CNOT2 / Fold change vs veh, CNOT2 / RFU, ZNF268 / Fold change vs veh, ZNF268 / Fold change vs veh, ZNF507 / RFU, DGCR2 / Fold change vs veh, DGCR2 / RFU, WDSUB1 / Fold change vs veh, WDSUB1 / Fold change vs veh, HSP90B1 /// MIR3652 / RFU, ADSS / Fold change vs veh, ADSS / RFU, GK / Fold change vs veh, GK / RFU, ZNF148 / Fold change vs veh, ZNF148 / RFU, TAF9 / Fold change vs veh, TAF9 / RFU, SLC1A5 / Fold change vs veh, SLC1A5 / RFU, SLMO2 / Fold change vs veh, SLMO2 / RFU, ABCC4 / Fold change vs veh, ABCC4 / RFU, LOC101060439 /// RAP1B / Fold change vs veh, LOC101060439 /// RAP1B / RFU, RFX7 / Fold change vs veh, RFX7 / RFU, GTPBP10 / Fold change vs veh, GTPBP10 / RFU, CNEP1R1 / Fold change vs veh, CNEP1R1 / RFU, BIVM-ERCC5 /// ERCC5 / Fold change vs veh, BIVM-ERCC5 /// ERCC5 / RFU, ILF3 / Fold change vs veh, ILF3 / RFU 11762660_at / Fold change /veh 11762660_at / RFU VCAN (11757783_s_at) / Fold change /veh VCAN (11757783_s_at) / RFU DDX43 (11728927_at) / Fold change /veh DDX43 (11728927_at) / RFU KRT8 (11758188_x_at) / Fold change /veh KRT8 (11758188_x_at) / RFU NKD1 (11759106_at) / Fold change /veh NKD1 (11759106_at) / RFU SRD5A1 (11742802_a_at) / Fold change /veh SRD5A1 (11742802_a_at) / RFU TPSAB1 /// TPSB2 (11721975_s_at) / Fold change /veh TPSAB1 /// TPSB2 (11721975_s_at) / RFU GSTM3 (11746129_a_at) / Fold change /veh GSTM3 (11746129_a_at) / RFU IL23R (11737362_x_at) / Fold change /veh IL23R (11737362_x_at) / RFU TMEM51 (11727254_a_at) / Fold change /veh TMEM51 (11727254_a_at) / RFU PIWIL2 (11732686_x_at) / Fold change /veh PIWIL2 (11732686_x_at) / RFU ORM1 (11744905_x_at) / Fold change /veh ORM1 (11744905_x_at) / RFU CCDC152 (11743942_at) / Fold change /veh CCDC152 (11743942_at) / RFU ECM1 (11717891_a_at) / Fold change /veh ECM1 (11717891_a_at) / RFU IL23R (11748794_a_at) / Fold change /veh IL23R (11748794_a_at) / RFU TNFAIP8L3 (11732012_x_at) / Fold change /veh TNFAIP8L3 (11732012_x_at) / RFU MBOAT4 (11741988_at) / Fold change /veh MBOAT4 (11741988_at) / RFU 11764193_at / Fold change /veh 11764193_at / RFU TMEM53 (11763286_at) / Fold change /veh TMEM53 (11763286_at) / RFU MAGEB2 (11727129_at) / Fold change /veh MAGEB2 (11727129_at) / RFU TMEM200A (11744735_a_at) / Fold change /veh TMEM200A (11744735_a_at) / RFU CCDC152 (11751479_a_at) / Fold change /veh CCDC152 (11751479_a_at) / RFU FAM211A (11726209_a_at) / Fold change /veh FAM211A (11726209_a_at) / RFU RGS16 (11746705_a_at) / Fold change /veh RGS16 (11746705_a_at) / RFU VCAN (11755009_s_at) / Fold change /veh VCAN (11755009_s_at) / RFU RHOB (11743442_s_at) / Fold change /veh RHOB (11743442_s_at) / RFU RGS16 (11720943_a_at) / Fold change /veh RGS16 (11720943_a_at) / RFU RGS16 (11720944_at) / Fold change /veh RGS16 (11720944_at) / RFU, VPS4B / Fold change vs veh, VPS4B / RFU, CREB1 / Fold change vs veh, CREB1 / RFU, DNAJC13 / Fold change vs veh, DNAJC13 / RFU, GNAQ / Fold change vs veh, GNAQ / RFU, CDK5R1 / Fold change vs veh, CDK5R1 / RFU, ZRANB3 / Fold change vs veh, ZRANB3 / RFU, CUL4A / Fold change vs veh, CUL4A / RFU, CCNY / Fold change vs veh, CCNY / RFU, UFL1 / Fold change vs veh, UFL1 / RFU, COG3 / Fold change vs veh, COG3 / RFU, DIAPH2 / Fold change vs veh, DIAPH2 / RFU, SKA2 / Fold change vs veh, SKA2 / RFU, AFF3 / Fold change vs veh, AFF3 / RFU, LMF1 / Fold change vs veh, LMF1 / RFU, IPO11 / Fold change vs veh, IPO11 / RFU, DFFB / Fold change vs veh, DFFB / RFU, FOXP1 / Fold change vs veh, FOXP1 / RFU, CARD8 / Fold change vs veh, CARD8 / RFU, STRN3 / Fold change vs veh, STRN3 / RFU, ADK / Fold change vs veh, ADK / RFU, RASSF2 / Fold change vs veh, RASSF2 / RFU, WIPF1 / Fold change vs veh, WIPF1 / RFU, LARP1B / Fold change vs veh, LARP1B / RFU, RASA1 / Fold change vs veh, RASA1 / RFU, RB1 / Fold change vs veh, RB1 / RFU, PPFIA1 / Fold change vs veh, PPFIA1 / RFU, MAT2A / Fold change vs veh, MAT2A / RFU, CCT5 / Fold change vs veh, CCT5 / RFU, WDR92 / Fold change vs veh, WDR92 / RFU, CUX1 / Fold change vs veh, CUX1 / RFU, TTC7A / Fold change vs veh, TTC7A / RFU, TMEM135 / Fold change vs veh, TMEM135 / RFU, DEPTOR / Fold change vs veh, DEPTOR / RFU, CPM / Fold change vs veh, CPM / RFU, DNAJB6 / Fold change vs veh, DNAJB6 / RFU, CACNA2D3 / Fold change vs veh, CACNA2D3 / RFU, DTX4 / Fold change vs veh, DTX4 / RFU, TFCP2 / Fold change vs veh, TFCP2 / RFU, GMCL1 /// GMCL1P1 / Fold change vs veh, GMCL1 /// GMCL1P1 / RFU, AEBP2 / Fold change vs veh, AEBP2 / RFU, SNHG1 /// SNORD22 /// SNORD25 /// SNORD26 /// SNORD27 /// SNORD28 /// SNORD29 /// SNORD31 / Fold change vs veh, SNHG1 /// SNORD22 /// SNORD25 /// SNORD26 /// SNORD27 /// SNORD28 /// SNORD29 /// SNORD31 / Fold change (Aza/veh), C12orf56 (ProbeSet 11735607_a_at) / Fold change (ACY-1035/veh), C12orf56 (ProbeSet 11735607_a_at) / Fold change (Aza/veh), FGFR1OP (ProbeSet 11751329_s_at) / Fold change (ACY-1035/veh), FGFR1OP (ProbeSet 11751329_s_at) / Fold change (Aza/veh), VPS36 (ProbeSet 11739960_a_at) / Fold change (ACY-1035/veh), VPS36 (ProbeSet 11739960_a_at) / RFU SYPL1 (11715823_x_at) / Fold change /veh SYPL1 (11715823_x_at) / RFU IGFBP7 (11715501_s_at) / Fold change /veh IGFBP7 (11715501_s_at) / RFU REEP3 (11722064_at) / Fold change /veh REEP3 (11722064_at) / RFU IGLL1 (11728026_x_at) / Fold change /veh IGLL1 (11728026_x_at): dose or concentration left out as unconfirmed
Settings: ProbeSet 11752001_a_at; LIST D

Nc1ccc(-c2cccs2)cc1NC(=O)c1ccc2c(c1)cc(C1CC1)n2CCN1CCOCC1 [ACY-1035]
Fold change vs veh, CUL4A: 0.87
